In publication PMC7519074, “Polar functional group-containing glycolipid CD1d ligands modulate cytokine-biasing responses and prevent experimental colitis” (Scientific Reports, 2020):
In brackets after ≈: the same amount, converted by molar mass. Entries after “also recorded” stand apart in the source; their conditions may differ.

What was measured:
DSS-induced colitis [1] = system: DSS-induced colitis; set-up: method as in PMID 15674111; settings: cited from earlier work
mCD1d-Fc fusion protein [2] = molecular target: T1, mCD1d-Fc fusion protein (Mus musculus, UniProt P11609); experiment: Antigen presenting cell (APC)-free assay for lipid binding to mCD1d-Fc; IL-2 release by 2E10 NKT hybridoma cells; type: cell-based; set-up: unit not given here; settings: ligand 100 nM; mean ± SEM; Fig. 3c, d
T1 construct: Ig (mouse immunoglobulin fusion partner); purchased BD Biosciences
T1 sequence (P11609 22-305 limits assumed): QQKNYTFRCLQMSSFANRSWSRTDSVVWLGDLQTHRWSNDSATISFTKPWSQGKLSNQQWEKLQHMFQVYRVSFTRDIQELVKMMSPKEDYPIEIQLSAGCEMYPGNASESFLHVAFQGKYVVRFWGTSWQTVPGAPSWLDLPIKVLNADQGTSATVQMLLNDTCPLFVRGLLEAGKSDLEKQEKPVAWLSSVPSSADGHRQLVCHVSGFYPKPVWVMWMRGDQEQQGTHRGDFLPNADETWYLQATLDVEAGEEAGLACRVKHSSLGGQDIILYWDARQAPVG
T1 sequence (P01887 21-119 partner): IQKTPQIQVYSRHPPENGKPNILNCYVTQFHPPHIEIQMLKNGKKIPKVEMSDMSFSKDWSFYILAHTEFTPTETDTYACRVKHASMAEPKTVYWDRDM
Method: NKT hybridoma 2E10 cells were cultured in RPMI-1640 (NACALAI TESQUE, INC) supplemented with 10% fetal bovine serum (FBS; Biowest), and 1% penicillin–streptomycin (Gibco).
For this assay, 96-well microplates (Bio-one 96-well cell culture plate, Greiner) were coated with mouse CD1d:Ig Fusion protein (BD Biosciences) (0.25 μg/well) in PBS at 37 °C for 24 h. […] After washing, 2E10 NKT hybridoma cells (2.5 × 10^5 cells/well) were added and cultured at 37 °C for 48 h. IL-2 release was measured with an ELISA kit (Affymetrix).

mouse splenocytes = experiment: Cytokine secretion assay using mouse splenocyte; type: cell-based, C57BL/6 mice; set-up: IFN-γ production / IL-4 production / IL-17A production: unit not given here; settings: for IFN-γ production / IL-4 production / IL-17A production: 1 nM ligand, 48 h; for IFN-γ production: Fig. S2a; for IL-4 production: Fig. S2b; for IL-17A production: Fig. S2c; for Relative ratio IL-4/IFN-γ of cytokine production compared to α-GalCer / Relative ratio IL-17A/IFN-γ of cytokine production compared to α-GalCer: 1 nM; for Relative ratio IL-4/IFN-γ of cytokine production compared to α-GalCer: Fig. 5a; for Relative ratio IL-17A/IFN-γ of cytokine production compared to α-GalCer: Fig. 5b; for cytokine polarization in words: from relative ratios, Fig. 5
Method: Spleen cell suspensions (from C57BL/6 mice) were prepared in complete medium (RPMI 1,640 media supplemented with 10% FBS and 1% penicillin–streptomycin) and seeded into 96-well plates (6.0 × 10^5 cells/well). Lipid ligands were added, and the mixture were incubated at 37 °C for 48 h. IFN-γ, IL-4 and IL-17A release were measured with an ELISA kit (Affymetrix).

Water solubility = type: physicochemical
[3] = Metabolic stability, human liver microsome; type: in vitro ADME; settings: for half-life: liver microsomes, read-out: metabolic stability (liver microsome, T1/2) human
[4] = Metabolic stability, rat liver microsome; type: in vitro ADME; settings: for half-life: liver microsomes, read-out: metabolic stability (liver microsome, T1/2) rat
[5] = Plasma pharmacokinetic profile in mice after ip dosing; type: in vivo, C57BL/6J mice; settings: male, C57BL/6, mouse, 100 ug/kg, 100 μg/kg ip, mice n = 6
Method: The pharmacokinetic study was approved by The Institutional Animal Care and Use Committee of Ono Pharmaceutical Co., Ltd. and was performed in accordance with the ethics criteria contained in the animal welfare bylaws of the Committee. The pharmacokinetics of 3 were studied following intraperitoneal administration. The 10 μg/mL dosing solution, which contained DMSO/Phosphate buffered saline = 1/9, was administered intraperitoneally to six male C57BL/6 mice (Charles River Laboratories, Japan, Inc.). Blood samples were collected into heparinized syringes at designated times and centrifuged to obtain the plasma samples. The plasma samples were assayed after protein precipitation by acetonitrile/ethanol (70/30, v/v), followed by HPLC/MS/MS analysis. Plasma concentration–time data were analyzed by noncompartmental methods.

DSS-induced colitis [6] = experiment: DSS-induced colitis model of ulcerative colitis; type: in vivo; settings: for DAI scores (disease activity index) versus PBS control / colon length (colon shortening) versus PBS control: 100 μg/kg ip on day 4, 2.0% DSS day 1-7, read on day 8
Method: DSS treatment causes progressive weight loss, diarrhea and colon inflammation with a significant reduction in colon length, which leads to increases in the clinical scores of disease symptoms (DAI: disease activity index). C57BL/6 mice (n = 12 per group) were continuously treated with 2.0% DSS in their drinking water from day 1 to day 7. The mice were injected intraperitoneally with 100 μg/kg of the derivatives or PBS (control) on day 4. On day 8, the DAI scores and colon lengths of the mice administered the derivatives were compared with those of the mice administered PBS (control). […] Colon shortening is a feature of colon inflammation in the DSS-induced model. In the model, the colon length of healthy mice is about 8 cm (DSS (−)), whereas that of mice upon DSS treatment is about 4 cm (DSS + PBS) as shown in Fig. 7b. […] In this study, we selected the intraperitoneal injection as the administration method of lipid ligands, and used DAI scores and colon length to investigate the protective effects of derivatives against colitis. On the other hand, the difference in the administration method of immunomodulators, such as lipid ligands, might have a significant impact on their efficacy[46],[47]. In addition, the cytokine profiles in the colon upon ligand treatment could also provide useful information regarding their efficacy. Further research is currently being conducted into the effects of administration methods on efficacy and the examination of colon cytokine profiles.
The animal experiments using murine DSS model were conducted in accordance with the guidelines of Keio university institutional animal care and use committee. Specific pathogen-free C57BL/6 mice were purchased from Japan Clea (Tokyo, Japan). All mice were housed under specific pathogen-free conditions in microisolator cages in an animal facility, and male mice (7 weeks of age) were used. DSS (dextran sulfate sodium) was added to the water supply provided to the animals at a concentration of 2.0% (wt/vol) for days 1–7. Derivatives 2 and 3 were first dissolved in DMSO at 100 μg/mL and then diluted in PBS solution. The derivatives (100 μg/kg in 200 μL of solution) were injected intraperitoneally on day 4 after the induction of colitis. Control animals received 200 μL of PBS solution containing the same concentration of DMSO. Mice were sacrificed on day 8 after DSS administration. Intestinal tissues were removed and opened longitudinally. The length of the colon was measured after exclusion of cecum. The disease activity index (DAI), defined as stool blood, stool form and weight loss, and the length of the colon were used to analyze the therapeutic benefits of derivatives 2 and 3.

mCD1d-Fc fusion protein [7] = molecular target: T1, mCD1d-Fc fusion protein; set-up: method as in PMID 27648599; settings: previously reported; cited from earlier work
[8] = Table S1, dash = below the detection limit (< 5 μM) according to b25

CCCCCCCCCCCCCCCCCCCCCCCC(=O)N[C@@H](COC1OC(CO)C(O)C(O)C1O)[C@H](O)[C@H](O)CCCCC (stereo partly drawn) [OCH]
efficacy in the murine DSS model, in words (DSS-induced colitis [1]): effective in the murine DSS model

CCCCCCCCCCCCCCCCCCCCCCCCCC(=O)N[C@@H](CO[C@H]1O[C@H](CO)[C@H](O)[C@H](O)[C@H]1O)[C@H](O)[C@H](O)CCCCCCCCCCCCCC [α-GalCer, α-galactosyl ceramide, reference compound]
IL-2 production (mCD1d-Fc fusion protein [2]): 274 ± 53
IFN-γ production (mouse splenocytes): 12,297 ± 61
IL-4 production (mouse splenocytes): 247 ± 14
IL-17A production (mouse splenocytes): 2,258 ± 242
solubility (Water solubility; [8]): < 5 µM
solubility (Water solubility; detection limit 5 μM): < 5 µM
efficacy in the murine DSS model, in words (DSS-induced colitis [1]): effective in the murine DSS model

CCCCCCCCCCCCCC[C@@H](O)[C@@H](O)[C@H](CO[C@H]1O[C@H](CO)[C@H](O)[C@H](O)[C@H]1O)NC(=O)CCCCCCCCCCCNC(=O)c1ccccc1 [compound 3]
IFN-γ production (mouse splenocytes): 514 ± 79
IL-17A production (mouse splenocytes): 1651 ± 127
Relative ratio IL-4/IFN-γ of cytokine production compared to α-GalCer (mouse splenocytes): 10.2 ± 1.6
Relative ratio IL-17A/IFN-γ of cytokine production compared to α-GalCer (mouse splenocytes): 18.0 ± 1.7
cytokine polarization in words (mouse splenocytes): IL-4- and IL-17A-biasing properties
solubility (Water solubility; detection limit 5 μM): 7.2 µM (≈ 5.62 µg/mL)
metabolic stability in words [3]: suboptimal metabolic property for human liver microsome
half-life [3]: < 0.25 h
metabolic stability in words [4]: resistant to rat microsomal metabolism
half-life [4]: 2.82 h
Cmax [5]: 92.8 ng/mL
Tmax [5]: 1 h
half-life [5]: 5.2 h
AUC ([5]; ip): 466 ng·h/mL
DAI scores (disease activity index) versus PBS control (DSS-induced colitis [6]): significant improvement in the DAI scores
colon length (colon shortening) versus PBS control (DSS-induced colitis [6]): significantly prevented the colon shortening
cytokine production / agonistic activity relative to α-GalCer, in words (mCD1d-Fc fusion protein [7]): higher levels of cytokine production relative to that caused by α-GalCer; also recorded: higher agonistic activity than α-GalCer

CCCCCCCCCCCCCC[C@@H](O)[C@@H](O)[C@H](CO[C@H]1O[C@H](CO)[C@H](O)[C@H](O)[C@H]1O)NC(=O)CCCCCCCCCCCNC(=O)CCCCCCCNC(=O)CC [compound 2]
IFN-γ production (mouse splenocytes): 9,467 ± 362
IL-4 production (mouse splenocytes): 593 ± 65
IL-17A production (mouse splenocytes): 5,179 ± 154
Relative ratio IL-4/IFN-γ of cytokine production compared to α-GalCer (mouse splenocytes): 3.15 ± 0.46
Relative ratio IL-17A/IFN-γ of cytokine production compared to α-GalCer (mouse splenocytes): 2.98 ± 0.03
cytokine polarization in words (mouse splenocytes): relatively less selective cytokine responses
solubility (Water solubility; [8]): < 5 µM
half-life [3]: < 0.25 h
metabolic stability in words [4]: resistant to rat microsomal metabolism
half-life [4]: 1.07 h
mice died by day 8 (DSS-induced colitis [6]; 100 μg/kg ip on day 4, 2.0% DSS day 1-7, n = 12 per group): Two out of twelve
DAI scores (disease activity index) versus PBS control (DSS-induced colitis [6]): did not significantly alter the DAI scores
colon length (colon shortening) versus PBS control (DSS-induced colitis [6]): significantly prevented the colon shortening
cytokine production / agonistic activity relative to α-GalCer, in words (mCD1d-Fc fusion protein [7]): higher levels of cytokine production relative to that caused by α-GalCer
